The values below come from paper PMC4019466, “RNA Mimicry by the Fap7 Adenylate Kinase in Ribosome Biogenesis” (PLoS Biology, 2014).

Data set [1] concerns the target T1, aFap7–aRps14 complex (Pyrococcus abyssi, UniProt Q9UZK4).
T1 construct: gene PYRAB11420; co-expressed from polycistronic pET21, N-terminal 6xHis on Fap7, E. coli Rosetta 2DE3; 1:1 complex, calculated mass 36,272; with Small ribosomal subunit protein uS11 (30S ribosomal protein S11)
In words: X-ray crystal structure, […] Å. As to conditions: Mg2+; ATP binding pocket of aFap7; pH 8.5, 18 °C.

The target of data set [2] is T2, yFap7 (Saccharomyces cerevisiae, UniProt Q12055).
T2 construct: gene FAP7; full-length, His-tagged, pRSF-DUET, expressed in E. coli Rosetta 2DE3; calculated monomer mass 23,916 (SAXS sample)
T2 sequence (Q12055 1-197): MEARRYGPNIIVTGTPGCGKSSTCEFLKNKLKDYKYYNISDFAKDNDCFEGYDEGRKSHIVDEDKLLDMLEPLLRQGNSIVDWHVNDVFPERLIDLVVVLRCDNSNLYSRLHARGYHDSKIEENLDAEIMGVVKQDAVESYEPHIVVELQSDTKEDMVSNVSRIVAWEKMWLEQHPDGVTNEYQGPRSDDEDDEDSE
The experiment in a line: native gel electrophoresis with radiolabelled ATP. The format is binding. As to conditions: 30 µM yFap7, 0.1 mM [γ-32P]ATP, AMP-PNP 0.1 or 1 mM.

Data set [3] deals with T2, yFap7. The experiment in a line: adenylate kinase assay coupled to pyruvate kinase / lactate dehydrogenase, NADH at […] nm. The format is biochemical. As to conditions: 5 mM MgCl2, pH 7.5, 30 °C; co-substrate ATP.
Data set [4] concerns the target T1, aFap7–aRps14 complex. In words: X-ray crystal structure, […] Å. As to conditions: Mg2+; ATP binding pocket of aFap7; pH 8.5, 18 °C; two of four aFap7 copies hold ATP, two ADP.
Data set [5] deals with T3, yFap7–yRps14 complex (Saccharomyces cerevisiae, UniProt Q12055).
T3 construct: gene FAP7; co-expressed from polycistronic pET21, N-terminal 6xHis on Fap7, E. coli Rosetta 2DE3; 1:1 complex, calculated mass 38,447; with Small ribosomal subunit protein uS11 (40S ribosomal protein S14)
The experiment in a line: adenylate kinase assay coupled to pyruvate kinase / lactate dehydrogenase, NADH at […] nm. As to conditions: 0.3 mM AMP, 5 mM MgCl2, pH 7.5, 30 °C; preformed complex. It counts as biochemical.

Substrate in data set [6]: Nc1ncnc2c1ncn2[C@@H]1O[C@H](COP(=O)(O)OP(=O)(O)OP(=O)(O)O)[C@@H](O)[C@H]1O
The experiment in a line: purified protein. It counts as biochemical, Saccharomyces cerevisiae. As to conditions: 0.3 mM AMP, 5 mM MgCl2, 60 mM KCl, 100 mM Tris-HCl pH 7.5, 30 °C, ATP 0.01–1 mM.

Data set [7] has as its target T4, MBP-yRps14 (Saccharomyces cerevisiae, UniProt P06367 1-137). The experiment in a line: filter binding; 6 mM Mg2+, 150 mM KCl, E. coli tRNA 60 ug/ml; Filter binding: 30 mM Tris-HCl pH 8.0, 150 mM KCl, 6 mM MgCl2, 60 ug/ml E. coli tRNA, 20 C, 15 min, 10 fmol RNA (Fig S4D: 20 mM HEPES pH 8.0, 300 mM KCl, 5 mM MgCl2, 20 C); pull-down: IP buffer (300 mM KCl, 50 mM Hepes pH 7.5, 0.5 mM EDTA, 1 mM DTT, 10% glycerol as given for bead preparation), 5 mM MgCl2 where stated. As to conditions: protein: recombinant; tags: MBP (pETM41; His-tag purification); (radioactively labeled); hairpin.

The target of data set [8] is T5, yFap7 (Saccharomyces cerevisiae, UniProt Q12055 1-197).
T5 sequence: T2 sequence (Q12055 1-197)
The experiment in a line: filter binding; up to 3.6 uM protein; 6 mM Mg2+, 150 mM KCl; Filter binding: 30 mM Tris-HCl pH 8.0, 150 mM KCl, 6 mM MgCl2, 60 ug/ml E. coli tRNA, 20 C, 15 min, 10 fmol RNA (Fig S4D: 20 mM HEPES pH 8.0, 300 mM KCl, 5 mM MgCl2, 20 C); pull-down: IP buffer (300 mM KCl, 50 mM Hepes pH 7.5, 0.5 mM EDTA, 1 mM DTT, 10% glycerol as given for bead preparation), 5 mM MgCl2 where stated. As to conditions: protein: recombinant; tags: His; (radioactively labeled); hairpin.

Data set [9] has as its target T4, MBP-yRps14. The experiment in a line: filter binding; 300 mM KCl, 5 mM Mg2+, HEPES pH 8.0; Filter binding: 30 mM Tris-HCl pH 8.0, 150 mM KCl, 6 mM MgCl2, 60 ug/ml E. coli tRNA, 20 C, 15 min, 10 fmol RNA (Fig S4D: 20 mM HEPES pH 8.0, 300 mM KCl, 5 mM MgCl2, 20 C); pull-down: IP buffer (300 mM KCl, 50 mM Hepes pH 7.5, 0.5 mM EDTA, 1 mM DTT, 10% glycerol as given for bead preparation), 5 mM MgCl2 where stated. As to conditions: protein: recombinant; tags: MBP (pETM41; His-tag purification); (radioactively labeled); hairpin.

Take `Nc1ncnc2c1ncn2[C@@H]1O[C@H](COP(=O)(O)OP(=O)(O)O)[C@@H](O)[C@H]1O` [ADP]: in [1], the “X-ray crystal structure, 2.12 Å” value is 4cwn and 4cw7 for the ADP- and ATP-bound structures.
For `Nc1ncnc2c1ncn2[C@@H]1O[C@H](COP(=O)(O)OP(=O)(O)NP(=O)(O)O)[C@@H](O)[C@H]1O` [AMPPNP], the “native gel electrophoresis with radiolabelled ATP” value in data set [2] was “Fap7 binds AMPPNP and ATP−Mg with the same (AMPPNP) or a slightly lower”.
For `Nc1ncnc2c1ncn2[C@@H]1O[C@H](COP(=O)(O)O)[C@@H](O)[C@H]1O` [AMP], the “adenylate kinase assay coupled to pyruvate kinase / lactate dehydrogenase, NADH” value in data set [3] is listed as “the AK activity of yFap7 with respect to AMP”.
Consider `Nc1ncnc2c1ncn2[C@@H]1O[C@H](COP(=O)(O)OP(=O)(O)OP(=O)(O)O)[C@@H](O)[C@H]1O` [ATP], for which the “X-ray crystal structure, 2.45 Å” value in [4] is on record as “In the ATP-bound crystal form, two copies of aFap7 are bound by ATP”. The “adenylate kinase assay coupled to pyruvate kinase / lactate dehydrogenase, NADH” value in [5] is listed as “yFap7–yRps14 complex showed almost complete inhibition of the Fap7 AK activity”.

B1: yFap7 (Saccharomyces cerevisiae S288C) (protein)
chain: T2 sequence (Q12055 1-197)
notes: full-length, His-tagged, pRSF-DUET, expressed in E. coli Rosetta 2DE3; calculated monomer mass 23,916 (SAXS sample)
In the case of B1, in data set [6], the Km was determined as 52 µM and the kcat was found to be 0.00612 s⁻¹.
Turning to GGGAGUAUUCAAUUGUCAGAGGUGAAAUUCUUGGAUUUAUUGAAGAGU (structured_RNA) [Helix 23 of 18S rRNA (H23)], the Kd in data set [7] came to 1.5 ± 0.15 µM; in data set [9] it was 34.9 ± 0.95 µM. The binding result in data set [8] is given as “no binding”.
